Data: US12043602B2, “Fendiline derivatives” (The Board of Regents of the University of Texas System, priority 2019, dated 2024)
Entries after “also recorded” stand apart in the source; their conditions may differ. Read-outs that look alike come from different tables or passages of the source.

Key:
[1] = system: NCI H522 (WT) lung tumor cells; assay: CyQUANT proliferation assay; assay type: cell-based; settings: Homo sapiens
Protocol: Madine Darby Canine Kidney epithelial cells (MDCK) stably co-expressing mGFP-tagged full length oncogenic mutant K-Ras (GFP—K-RASG12V) or mGFP-LactC2 (peptide probe for phosphatidylserine) and mCherry-tagged to the amino acids 179-189 of H-RasC181S, C184S (mCherry-CAAX, localizes primarily to endomembranes) were grown in DMEM-high glucose/sodium pyruvate/10% FBS. The medium was supplemented with 1× Penicillin/Streptomycin for fluorescence microscopy assays, to avoid any microbial contamination from the test compounds added. KLE and Hec50 cells were maintained in DMEM-F-12 medium supplemented with 10% FBS. Hec-1A and Hec-1B cells were grown in McCoy's 5a medium supplemented with 10% FBS. ESS-1 cells were grown in RPMI 1640 medium supplemented with 20% FBS. MPanc96 cells were grown in DMEM supplemented with 10% FBS, MiaPaCa-2 cells in DMEM supplemented with 10% FBS and 2.5% horse serum and all other cell lines were grown in RPMI 1640 supplemented with 10% FBS. All cancer cell media were supplemented with ×Penicillin/Streptomycin. All cell lines were grown at 37° C. with 5% CO2.
Cells were seeded in 96-well plates. After 24 h, fresh growth medium supplemented with 0.1% vehicle (DMSO), or various concentrations of drugs was added and cells were grown for 72 h. Cell numbers were quantified using the CyQUANT® Cell Proliferation Assay Kit (Molecular Probes, Life Technologies), according to the manufacturer's protocol. Fluorescence measurement was used as a measure of live cell number.

[2] = system: MiaPaCa-2 tumors; assay: In vivo tumor growth assay (xenograft); design: species or system nu/nu mice; settings: for growth of MiaPaCa-2 xenografts: intraperitoneally, once daily 5 days on / 2 days off, doses 1-12.5 mg/kg; for minimum effective dose on tumor growth relative to fendiline: MiaPaCa2 xenografts in nude mice
Protocol: In Vivo Tumor Growth Assay. All animal studies were performed under an Institutional Animal Care and Use Committee (IACUC) approved animal protocol (AWC-15-0101), in accordance with the National Institutes of Health Guide for the Care and Use of Laboratory Animals. Early passage MiaPaCa-2 cells were harvested, and 2×10^6 cells were implanted into the right flanks of female nu/nu mice. The animals were randomized into control and treated groups (10 mice per group). Tumor volume (V) was measured with an external caliper every 3-4 days and it was calculated as V=0.52 (length×width2). Compound treatment was initiated when the tumor sizes reached 100 mm3. Compounds (12.5 mg/kg) were injected daily intraperitoneally for 5 days, with 2 days of no treatment in between. All treatments were continued until any of the subcutaneous tumors reached 1500 mm3 in volume, when all the animals were sacrificed, and the tumors removed.
Early passage BxPC-3 or MIAPaCa-2 cells were harvested, and 2-3X106 cells were implanted into the right flanks of nu/nu mice. The animals were randomized into control and treated groups (10 mice per group). Tumor volume (V) was measured with an external caliper every 3-4 days and it was calculated as V=0.52 (length×width2). Drug treatment was initiated 4 days after tumor implantation. Drugs were injected daily intraperitoneally (at doses indicated) for 5 days, with 2 days of no treatment in between. All treatments were continued until any of the subcutaneous tumors reached 1500 mm3 in volume or for 6 weeks (whichever was first), when all the animals were sacrificed and the tumors removed.
Next the effect of the selected PMLIs on the growth of oncogenic KRAS expressing MiaPaCa-2 cells implanted subcutaneously into the flanks of nu/nu immunosuppressed mice was determined. […] The animals were randomized into control and PMLI-treated groups (10 mice per group). Treatment was initiated when the tumors reached a mean volume of 100 mm^3. PMLIs were tested at 12.5, 7.5, 5, 2.5 and 1 mg/kg doses, administered once daily intraperitoneally for 5 days, with 2 days of no treatment in between for the duration of the experiment. […] There was no observed toxicity detected in any of the compound-treated groups during the experiment and, accordingly, there was no significant difference in the body weight of the animals in the different groups.

[3] = system: pERK; assay: Immunohistochemistry of tumor sections, pERK; design: species or system nu/nu mice; settings: mouse, in vivo
Protocol: Immunohistochemistry. 4-5 μm sections were deparaffinized, rehydrated, and treated with 10 mM sodium citrate for heat induced antigen retrieval. After quenching endogenous peroxidase, and blocking with 2.5% normal goat serum (Vector Laboratories S-1012), sections were incubated overnight at 4° C. with primary antibody diluted in blocking solution as recommended by manufacturer (Cell Signaling). Controls were incubated with diluted normal rabbit IgG. After incubation with biotinylated secondary antibody diluted 1:250 in blocking serum for 45 min at rt, sections were incubated with VECTASTAIN ABC reagent for 30 min, and for development of the DAB chromogen the Quanto substrate was used. Slides were counter stained with Hematoxylin. Five fields per stained section per xenograft were photographed at 10X. CC3+ and pERK+ area and number of events per field were quantitated via automated image analysis (NIS Elements BR analysis ver. 4.13.04). Vessel number and lumen area per field used the same software with manual settings to trace vessel wall contours. Antibodies used are as follows: CC3: Cell Signaling #9661, use at 1:300. (Cleaved Caspase-3 (Asp175) Antibody. Rabbit polyclonal. pERK: Cell Signaling #4370: Phospho-p44/42 MAPK (Erk1/2) (Thr202/Tyr204) (D13.14.4E) XP Rabbit mAB. CD31 (PECAM-1) (D8V9E) XP Rabbit mAB (Cell signal # (Cell signal #77699). Normal rabbit IgG: Santa Cruz #sc-3888. Concentration is 50 μg/mL or 50 ng/μL. Prepared with 5 μg in 200 μL blocking solution. Goat Anti-Rabbit IgG Biotin Conjugate: Calbiochem #OS03B, Concentration=1.2 mg/mL. Recommended to be used for IHC at 1 μg/mL.

[4] = NCI-H522, 72 h, read-out: IC50 proliferation NCI H522 (WT)
[5] = NCI-H522, Table 11, lung, read-out: IC50 (μM) NCI H522 (WT)

| SMILES | IC50 [1, 4] [µM] | IC50 [1, 5] [µM] | MiaPaCa2 xenograft size ([2]; 12.5 mg/kg intraperitoneally, days 28, 32 and 35) | growth of MiaPaCa-2 xenografts [2] | pERK levels in tumors [3] | minimum effective dose on tumor growth relative to fendiline [2] | tumor growth at 1 mg/kg ([2]; 1 mg/kg intraperitoneally) | growth of MiaPaCa-2 xenografts ([2]; listed as 12h) | growth of MiaPaCa-2 xenografts ([2]; listed as 22) |
| --- | --- | --- | --- | --- | --- | --- | --- | --- | --- |
| CC(NCCC(c1ccccc1)c1ccccc1)c1ccccc1 (stereo not shown) [Fendiline] | 29.6 | 29.6 ± 1.2 | significantly smaller | inhibits the growth | no significant effect | – | – | – | – |
| COc1ccc([C@@H](C)N(CC=C(c2ccccc2)c2ccccc2)CCN2CCN(C)CC2)cc1 [NY0244, (R)-N-(1-(4-methoxyphenyl)ethyl)-N-(2-(4-methylpiperazin-1-yl)ethyl)-3,3-diphenylprop-2-en-1-amine] | 28.2 | 28.2 | – | – | – | more potent than fendiline | – | – | – |
| COc1ccc([C@@H](C)N(CC=C(c2ccccc2)c2ccccc2)CCN2CCCC2)cc1 [NY0331, (R)-N-(1-(4-methoxyphenyl)ethyl)-3,3-diphenyl-N-(2-(pyrrolidin-1-yl)ethyl)prop-2-en-1-amine] | – | – | – | – | reduced | more potent than fendiline | significantly inhibited tumor growth | suppressed; also recorded: strikingly decreased the rate of growth | – |
| COc1ccc([C@@H](C)N(CC=C(c2ccccc2)c2ccccc2)CCCN2CCN(C)CC2)cc1 [NY0335, (R)-N-(1-(4-methoxyphenyl)ethyl)-N-(3-(4-methylpiperazin-1-yl)propyl)-3,3-diphenylprop-2-en-1-amine] | 23.5 | 23.5 ± 3.2 | – | – | reduced | – | – | – | suppressed; also recorded: strikingly decreased the rate of growth |
